# What was measured:
# [1] = target: T1, TLR4 (Mus musculus, UniProt Q9JHF9+Q9QUK6); assay: Mouse peritoneal macrophage agonist assay (TNF-α ELISA); assay type: cell-based; parameters: used to inject mice intraperitoneally; endogenous in cells; host or cells: mouse peritoneal exudate cells (thioglycolate-elicited peritoneal macrophages); settings: for TLR4 agonist efficacy: relative to neoseptin-1 or LPS; for EC50: read-out: EC50 of dose-response curves, TLR4 agonist activity
# T1 sequence (Q9QUK6 26-835): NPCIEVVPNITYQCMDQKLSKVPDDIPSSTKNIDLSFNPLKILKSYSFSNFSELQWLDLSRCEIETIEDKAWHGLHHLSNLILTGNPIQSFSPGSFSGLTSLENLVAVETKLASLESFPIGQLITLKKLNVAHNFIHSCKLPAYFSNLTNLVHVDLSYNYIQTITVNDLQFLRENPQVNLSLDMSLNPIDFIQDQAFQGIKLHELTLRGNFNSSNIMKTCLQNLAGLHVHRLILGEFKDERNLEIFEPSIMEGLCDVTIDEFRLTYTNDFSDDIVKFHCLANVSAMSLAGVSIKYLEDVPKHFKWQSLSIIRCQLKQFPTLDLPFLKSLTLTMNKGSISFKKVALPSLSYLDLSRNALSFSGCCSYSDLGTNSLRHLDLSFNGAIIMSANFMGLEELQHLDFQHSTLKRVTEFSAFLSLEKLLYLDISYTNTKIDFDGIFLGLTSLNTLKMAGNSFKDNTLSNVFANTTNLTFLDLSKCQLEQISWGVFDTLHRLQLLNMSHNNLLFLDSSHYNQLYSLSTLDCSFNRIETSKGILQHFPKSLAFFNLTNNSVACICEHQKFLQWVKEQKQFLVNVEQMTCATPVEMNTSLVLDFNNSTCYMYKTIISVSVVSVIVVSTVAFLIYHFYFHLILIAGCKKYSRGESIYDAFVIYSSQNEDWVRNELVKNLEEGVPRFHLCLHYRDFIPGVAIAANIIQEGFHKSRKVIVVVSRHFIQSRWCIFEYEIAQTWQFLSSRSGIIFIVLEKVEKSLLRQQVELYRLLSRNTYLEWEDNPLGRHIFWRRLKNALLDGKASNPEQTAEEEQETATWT
# T1 sequence (Q9JHF9 19-160): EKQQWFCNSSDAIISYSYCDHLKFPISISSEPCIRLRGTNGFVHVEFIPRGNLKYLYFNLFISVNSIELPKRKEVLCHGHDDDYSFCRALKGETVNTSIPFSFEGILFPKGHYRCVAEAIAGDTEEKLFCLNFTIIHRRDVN
# Protocol: Mouse Peritoneal Macrophage Agonist Assay
# Three to four days prior to PEC isolation, 3 mL syringes filled with Brewer's thioglycolate medium are used to inject mice intraperitoneally with 1.5-2 mL through a 25-gauge needle.
# Immediately prior to isolation, mice are anaesthetized under isofluorane vapour (2-5% v/v, 2% O2).
# 5 mL syringes filled with sterile PBS are used to recover PECs by lavage through an 18-gauge needle. Once obtained, exudate is added to 5 mL of PEC recovery solution in a 15 mL conical tube, and stored on ice.
# Tubes containing exudate are centrifuged for 3 minutes at 1200 rpm in a tabletop centrifuge, and supernatant is replaced with 1-4 mL of PEC medium. Pelleted cells are resuspended by pipeting, and a 10 μL aliquot is taken for cell enumeration.
# The concentration of each cell sample is adjusted to 1×10^6 cells/mL using PEC medium, and 100 μL of each sample (1×10^5 cells) is added to a tissue culture-treated 96 well flat-bottomed plate, leaving two columns (11 & 12) unoccupied per plate. Plates are incubated at 37° C./5% CO2 in a humidified incubator for at least 1 hour to permit cells to adhere to the plate, during which time 125-03 solutions are prepared.
# Following preincubation of PECs in the 96-well plate, non-adherent PECs are discarded along with residual medium, and 50 μM of compounds to be assayed are added to the cells. Plates are incubated for a further 4 hours.
# Conditioned supernatant is collected into another 96 well plate and retained for TNF ELISA Assay. The cells are replaced with 100 μL/well of a 1:4 MTT solution:PEC medium solution (MTT 1 mg/mL final concentration). PEC plates are incubated at 37° C./5% CO2 overnight (about 18 hours). Supernatants are removed and 100 μL DMSO is added to each well. The plate is shaken for 10 minutes and read at 570 nm. This value is used to measure the cytotoxicity of the compounds.
# Coat ELISA plate with 100 μL/well of capture antibody in Coating Buffer. Seal the plate and incubate overnight (about 18 hours) at 4° C.
# Aspirate wells and wash 4× with 300 μL/well Wash Buffer. Blot plate on absorbent paper to remove residual buffer.
# Dilute 1 part 5× concentrated Assay Diluent with 4 parts DI water. Block wells with 200 μL/well of 1× Assay Diluent. Incubate at room temperature for 1 hour or 4° C. overnight (about 18 hours).
# Aspirate and wash at twice with Wash Buffer.
# Using 1× Assay Diluent to perform 2-fold serial dilutions of the top standards to make the standard curve for a total of 8 points: 1000, 500, 250, 125, 62.5, 31.25, 15.625, 0 pg/ml. Add 100 μL/well of top standard concentration to the appropriate wells. Add 65 μL/well assay diluent plus 35 μL samples to the wells. Seal the plate and incubate at room temperature for 2 hours [or overnight (about 18 hours) at 4° C.]
# Aspirate/wash 4 times with wash buffer.
# Add 100 μL/well of detection antibody diluted in 1× Assay diluent. Seal the plate and incubate at room temperature for 1 hour.
# Aspirate/wash. Repeat for a total of 4 washes.
# Add 100 μL/well of Avidin-HRP diluted in 1× Assay diluent. Seal the plate and incubate at room temperature for 30 minutes.
# Aspirate and wash. Repeat for a total of 5 washes.
# Add 100 μL/well of Substrate Solution to each well. Incubate plate at room temperature for 2-3 minutes.
# Add 50 μL/well of Stop Solution, and read plate at 450 nm.
# [2] = target: T1, TLR4; assay: TNF-α production in macrophages from mice with disabling germline mutations or knockouts of TLRs and downstream signaling proteins; assay type: cell-based; parameters: normalized TNF-α production in macrophages from mice; endogenous in cells; host or cells: macrophages from wild-type and mutant/knockout mice; settings: for Genes on which induced TNF-α production depends / mechanism of signaling: mutant or knockout mouse macrophages, 5 ng/ml LPS or 50 mM neoseptin-3 (FIG. 1)
# Protocol: FIG. 1 in two parts as FIG. 1A and FIG. 1B are bar graphs that illustrate an assay of normalized TNF-α production in macrophages from mice containing disabling germline mutations or knockouts of genes encoding TLRs and downstream signaling proteins using 5 ng/ml of LPS or […] neoseptin-3.
# (§1) See, (a) mutagenetix.utsouthwestern.edu.; (b) Arnold et al., (2012) ENU-induced phenovariance in mice: Inferences from 587 mutations. BMC Res. Notes. 5, 577-0500-5-577.
# [3] = target: T2, MD-2 (UniProt Q9JHF9); assay: Isothermal titration calorimetry binding to MD-2
# T2 sequence (Q9JHF9 1-160): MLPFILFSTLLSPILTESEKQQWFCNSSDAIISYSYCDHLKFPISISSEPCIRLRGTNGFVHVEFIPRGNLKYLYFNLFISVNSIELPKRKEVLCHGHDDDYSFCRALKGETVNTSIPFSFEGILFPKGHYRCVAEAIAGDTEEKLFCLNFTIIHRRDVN
# [4] = test system: type I interferon response; assay: Type I interferon response, release of INF-β / INF-α (FIG. 2); assay type: cell-based
# [5] = test system: C57BL/6J mice; assay: In vivo adjuvant effect, intramuscular co-injection with ovalbumin, serum OVA-specific IgG ELISA; parameters: species or system mouse
# Protocol: FIG. 3, in two panels as FIG. 3A and FIG. 3B, are graphs that illustrate ELIZA results for the adjuvant effect of neoseptin-3. In FIG. 3A, adjuvants were mixed with ovalbumin (OVA, 100 μg) and injected intramuscularly into C57BL/6J mice at the indicated doses. Two immunizations were administered with a booster given at 7 days. In FIG. 3B, LPS (0.2 mg/kg), neoseptin-3 (250 mg/kg) or monophosphoryl lipid A from Salmonella minnesota R595 (MPLA) (0.2 mg/kg) were mixed with ovalbumin (OVA, 0, 1, 10, and 100 μg) Serum levels of OVA-specific IgG were measured (ELISA) on indicated days post-immunization.
# FIG. 9 is a graph similar to FIG. 3 showing anti-olvalbumin titers at 14 days post immunization using adjuvants with ovalbumin (OVA, 100 μg) and injected intramuscularly into C57BL/6J mice. The adjuvants used were neoseptin-3, LPS, MPLA, and alum in the amounts shown.
# It is remarkable that such a small molecule can display such exquisite structural selectivity for activating the immune response and to do so in a way that is so mechanistically specific and well-defined. {See, (a) Vogel Clin. Infect. Dis. 30 (Suppl 3):S266-S270 (2000); (b) Guy, Nat. Rev. Microbiol. 5:505-517 (2007); (c) Johnson, Curr. Top. Med. Chem. 8:64-79 (2008); and (d) Persing et al., Trends Microbiol. 10:S32-S37 (2002) and the citations therein for the procedures utilized.] […]
# [6] = Overt toxicity on in vivo administration as adjuvant; settings: at the maximum doses capable of administration
# Description: Thus, a contemplated Compound of Formula I acts as an agonist at the TLR4 receptor in that it binds to the TLR4 receptor of a cell and triggers a response by that cell, thereby mimicking the action of LPS, without the toxic result from using LPS as an adjuvant.
# It is remarkable that such a small molecule can display such exquisite structural selectivity for activating the immune response and to do so in a way that is so mechanistically specific and well-defined. {See, (a) Vogel Clin. Infect. Dis. 30 (Suppl 3):S266-S270 (2000); (b) Guy, Nat. Rev. Microbiol. 5:505-517 (2007); (c) Johnson, Curr. Top. Med. Chem. 8:64-79 (2008); and (d) Persing et al., Trends Microbiol. 10:S32-S37 (2002) and the citations therein for the procedures utilized.]
# [7] = test system: NF-κB, P38 MAPK, JNK, and Erk signaling pathways; assay: Activation of signaling pathways; assay type: cell-based
# Description: as §1
structure (smiles),measurement,setting,value
N[C@@H](Cc1ccccc1)C(=O)Nc1ccc(C(=O)N[C@@H](CCc2ccccc2)C(=O)O)cc1CCc1ccc(O)cc1 [MM-1-88],TLR4 agonist efficacy,[1],significant enhancement in TLR4 agonist efficacy
N[C@@H](Cc1ccccc1)C(=O)Nc1ccc(C(=O)N[C@@H](CCc2ccccc2)C(=O)O)cc1OCCc1ccc(O)cc1 [neoseptin-1],Genes on which induced TNF-α production depends / mechanism of signaling,[2],established to be TLR4
CC(C)(C)OC(=O)[C@H](CCc1ccccc1)NC(=O)c1ccc(N)c(CCc2ccc(O)cc2)c1 [neoseptin-3],Affinity for MD-2 relative to MPLA,[3]; ITC direct binding,slightly better than that of MPLA itself
same,Kd,"[3]; ITC, 20 μM neoseptin-3 with 350 μM MD-2",11.7 µM
same,Release of INF-β (type I interferon response) compared with LPS,[4],much more effectively stimulates a type I interferon response resulting in the release of INF-β
same,In vivo adjuvant immune response compared with LPS,"[5]; co-injected with ovalbumin, intramuscular (FIG. 3)",more sustained immune response of equal or greater efficacy than LPS
same,In vivo adjuvant immune response compared with alum,"[5]; ovalbumin 100 μg i.m., 14 days post immunization (FIG. 9)",much more robust immune response in vivo than does alum
same,Overt toxicity,[6],does not display the overt toxicity
same,Activation of signaling pathways,[7],"activate the NF-κB, P38 MAPK, JNK, and Erk signaling pathways"
same,Genes on which induced TNF-α production depends / mechanism of signaling,[2],"dependent on TLR4, MD-2, MyD88, Trif, TRAM, MAL, IRAK4, and IKBKG"
same,CD14 dependence of induced TNF-α production,[2]; unlike LPS,independent of CD14
same,EC50,[1],15 to 25 µM
same,TLR4 agonist efficacy,[1],nearly matching the efficacy of LPS
same,Effect of antagonist eritoran on TLR4 agonist activity,[1]; with eritoran,blocked by the antagonist eritoran
CC(C)(C)OC(=O)[C@H](CCc1ccccc1)NC(=O)c1ccc(N)c(OCCc2ccc(O)cc2)c1 [neoseptin-4],EC50,[1],15 to 25 µM
same,TLR4 agonist efficacy,[1],nearly matching the efficacy of LPS

# Reference: US9649373B2, “Neoseptins: small molecule adjuvants” (THE SCRIPPS RESEARCH INSTITUTE, priority 2013, dated 2017)
